Some test systems named below: KM12 colon; U251 CNS; IGROV1 ovarian; RPMI-8226 leukemia; T-47D breast; SK-MEL-28 melanoma; M14 melanoma; SF-268 CNS; HCT-116 colon; LOX IMVI melanoma.
What all share (assay): NCI tumour cell line growth inhibition, 48 h

Drawing on PubChem BioAssay (NCI), this text covers GI50 and TGI for 8 compounds.

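Values below derive from 48-hour exposures of cells grown in 96-well plates, with endpoints linearly interpolated between the two concentrations bracketing the appropriate inhibition level. GI50: concentration for 50% inhibition of growth. TGI: concentration producing complete growth inhibition.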 Bounds are passed on as bounds.

As for `O=C(Nc1cccc2[nH]c(C(F)(F)F)nc12)c1cc(Cl)ccc1Cl`, the GI50 with KM12 colon is 3.37 µM; in the test with U251 CNS it was 3.47 µM; with IGROV1 ovarian, 6.04 µM; in the test with RPMI-8226 leukemia it was 2.3 µM; with T-47D breast, 1.84 µM; in the test on SK-MEL-28 melanoma, 4.95 µM. For the same compound, the GI50 in the test on M14 melanoma is 3.32 µM; in the test on SF-268 CNS, 4.69 µM; in the test with HCT-116 colon, 3.06 µM; in the test with LOX IMVI melanoma, 2.97 µM. Further, the TGI in the test with KM12 colon was 11.2 µM; with U251 CNS it was 14.1 µM; in the test with IGROV1 ovarian, above 100 µM; in the test on RPMI-8226 leukemia it was 6.3 µM; in the test on T-47D breast it was 6.43 µM; in the test with SK-MEL-28 melanoma it was 35.4 µM. The TGI in the test with M14 melanoma was 16.3 µM; in the test on SF-268 CNS it was above 100 µM; with HCT-116 colon, 12.9 µM; with LOX IMVI melanoma, 10 µM.

Regarding `C=C(CN1CCc2c([nH]c3ccccc23)C1)c1ccc(C(=O)Nc2ccccc2N)cc1`, the GI50 is 3.42 µM in the test on KM12 colon; 1.42 µM with U251 CNS; 1.08 µM in the test on IGROV1 ovarian; 0.356 µM in the test with RPMI-8226 leukemia; 8.5 µM with T-47D breast; 2.25 µM in the test on SK-MEL-28 melanoma. In addition, the GI50 in the test with M14 melanoma was 4.13 µM; in the test with SF-268 CNS, 2.89 µM; in the test with HCT-116 colon, 2.19 µM; with LOX IMVI melanoma, 4.52 µM. The TGI stood at 12.6 µM with KM12 colon; 7.73 µM in the test with U251 CNS; 18.9 µM in the test on IGROV1 ovarian; 3.57 µM with RPMI-8226 leukemia; 50 µM with T-47D breast; 16.1 µM with SK-MEL-28 melanoma. Moreover, the TGI with M14 melanoma is 14.7 µM; with SF-268 CNS it was 10.8 µM; with HCT-116 colon, 32.9 µM; with LOX IMVI melanoma it was 10.2 µM.

On to `ClCc1cccc(Cn2cnc3c(Cl)nc(Cl)nc32)c1`, for which the GI50 with KM12 colon is 1.82 µM; with U251 CNS, 1.7 µM; in the test with IGROV1 ovarian, 2.27 µM; with RPMI-8226 leukemia, 3.29 µM; in the test on T-47D breast, 1.97 µM; in the test on SK-MEL-28 melanoma, 2.34 µM. Besides, the GI50 is 1.79 µM in the test with M14 melanoma, 2.5 µM in the test on SF-268 CNS, 1.64 µM in the test with HCT-116 colon and 1.69 µM with LOX IMVI melanoma. The TGI with KM12 colon is 3.79 µM; with U251 CNS it was 3.09 µM; with IGROV1 ovarian, 5.18 µM; in the test on RPMI-8226 leukemia, above 100 µM; in the test on T-47D breast it was 4.5 µM; in the test on SK-MEL-28 melanoma, 5.38 µM. For the same compound, the TGI in the test with M14 melanoma was determined as 3.41 µM; in the test on SF-268 CNS it was 6.64 µM; in the test on HCT-116 colon, 3.12 µM; in the test with LOX IMVI melanoma it was 3.4 µM.

`CC(=O)c1ccc2c(c1)N(CCCN1CCN(CCO)CC1)c1ccccc1S2`: the GI50 in the test with KM12 colon was 1.97 µM; in the test with U251 CNS it was 1.94 µM; in the test with IGROV1 ovarian, 2.16 µM; with RPMI-8226 leukemia, 2.4 µM; in the test on T-47D breast, 1.94 µM; in the test with SK-MEL-28 melanoma it was 1.73 µM. For the same compound, the GI50 in the test with M14 melanoma was 1.88 µM; in the test on SF-268 CNS, 3.15 µM; in the test on HCT-116 colon it was 1.81 µM; in the test with LOX IMVI melanoma, 1.68 µM. Besides, the TGI was determined as 4.04 µM in the test on KM12 colon; 4.06 µM in the test with U251 CNS; 6.12 µM with IGROV1 ovarian; 8.75 µM with RPMI-8226 leukemia; 5.2 µM in the test with T-47D breast; 3.23 µM with SK-MEL-28 melanoma. For the same compound, the TGI in the test on M14 melanoma came out at 3.6 µM; in the test on SF-268 CNS it was 12.2 µM; with HCT-116 colon, 3.49 µM; in the test on LOX IMVI melanoma it was 3.26 µM.

Consider `c1ccc(-c2nc3n(c2-c2ccc4c(c2)OCO4)CCC3)nc1`, for which the GI50 is 5.9 µM with KM12 colon; 6.96 µM in the test on U251 CNS; 7.37 µM in the test with IGROV1 ovarian; 9.88 µM in the test with RPMI-8226 leukemia; 7.99 µM in the test with T-47D breast; 9.29 µM in the test with SK-MEL-28 melanoma. For the same compound, the GI50 with M14 melanoma is 6.77 µM; in the test with SF-268 CNS, 7.86 µM; in the test with HCT-116 colon it was 8.16 µM; in the test on LOX IMVI melanoma, 7.46 µM. In addition, the TGI in the test on KM12 colon is above 25 µM; in the test with U251 CNS it was above 25 µM; in the test with IGROV1 ovarian, above 23.2 µM; in the test with RPMI-8226 leukemia, above 25 µM; in the test with T-47D breast it was above 23.4 µM; in the test with SK-MEL-28 melanoma it was above 22.8 µM. The TGI with M14 melanoma was above 20.3 µM; in the test on SF-268 CNS it was above 25 µM; in the test with HCT-116 colon, above 25 µM; with LOX IMVI melanoma, above 25 µM.

As to `N=c1ccc2nc3ccc(N)cc3sc-2c1`, the GI50 in the test on KM12 colon is 4.24 µM; with U251 CNS, 3.45 µM; in the test on IGROV1 ovarian it was 6.77 µM; in the test with RPMI-8226 leukemia, 2.87 µM; with T-47D breast it was 4.05 µM; in the test on SK-MEL-28 melanoma, 13.1 µM. Further, the GI50 is 4.34 µM with M14 melanoma, 6.42 µM in the test on SF-268 CNS, 2.67 µM in the test on HCT-116 colon and 2.72 µM in the test with LOX IMVI melanoma. In addition, the TGI is above 100 µM with KM12 colon; 10.5 µM in the test with U251 CNS; 75 µM in the test with IGROV1 ovarian; 26 µM with RPMI-8226 leukemia; 18.8 µM in the test on T-47D breast; 32.6 µM with SK-MEL-28 melanoma. Further, the TGI in the test with M14 melanoma worked out at 21.8 µM; in the test on SF-268 CNS it was 56.2 µM; in the test on HCT-116 colon it was 10.5 µM; in the test on LOX IMVI melanoma, 12.5 µM.

Consider `C=C1C(=O)O[C@H]2[C@H]1CC/C(COC(=O)N[C@H]1C[C@H](O[C@H]3C[C@](O)(C(=O)CO)Cc4c(O)c5c(c(O)c43)C(=O)c3c(OC)cccc3C5=O)O[C@@H](C)[C@H]1O)=C\CC[C@@]1(C)O[C@@H]21`, for which the GI50 in the test with KM12 colon was 13.2 µM; in the test on U251 CNS it was 4.87 µM; with IGROV1 ovarian, 5.77 µM; with RPMI-8226 leukemia, 1.33 µM; with T-47D breast, 2.27 µM; in the test with SK-MEL-28 melanoma it was 1.51 µM. The GI50 is 8.36 µM in the test with M14 melanoma, 6.72 µM with SF-268 CNS, 1.72 µM with HCT-116 colon and 2.17 µM in the test on LOX IMVI melanoma. Moreover, the TGI in the test on KM12 colon is 40.7 µM; with U251 CNS, 11.2 µM; in the test with IGROV1 ovarian, 19 µM; with RPMI-8226 leukemia it was 3.97 µM; in the test with T-47D breast, 10.4 µM; with SK-MEL-28 melanoma it was 4.67 µM. Besides, the TGI in the test with M14 melanoma is 22.5 µM; in the test with SF-268 CNS it was 24.6 µM; in the test with HCT-116 colon, 5.58 µM; with LOX IMVI melanoma, 8.25 µM.

Turning to `O=C(CC1(O)C(=O)Nc2ccc(F)cc21)c1ccc(C(=O)NCC2CCC3(CC2)OOC2(CCCCC2)OO3)cc1` (stereo not given), the GI50 was 4.09 µM in the test with KM12 colon; 3.18 µM in the test with U251 CNS; 1.64 µM in the test on IGROV1 ovarian; 2.57 µM in the test with RPMI-8226 leukemia; 5 µM with T-47D breast; 13.9 µM with SK-MEL-28 melanoma. Moreover, the GI50 in the test on M14 melanoma was 12.2 µM; in the test on SF-268 CNS, 10.8 µM; in the test on HCT-116 colon, 8.66 µM; in the test with LOX IMVI melanoma, 0.309 µM. Also, the TGI in the test with KM12 colon is 17.5 µM; in the test on U251 CNS, 11.3 µM; in the test with IGROV1 ovarian, 6.63 µM; in the test on RPMI-8226 leukemia it was 8.55 µM; with T-47D breast, 44.2 µM; in the test on SK-MEL-28 melanoma, 32.4 µM. The TGI was determined as 39.3 µM with M14 melanoma, 30.8 µM with SF-268 CNS, 32 µM in the test with HCT-116 colon and 1.27 µM in the test on LOX IMVI melanoma.
